We go through 13 compounds from paper PMC9481026 (PLoS ONE, 2022).

SMILES strings stand for the structures. pEC50, pIC50: −log10 of the molar value. Converted amounts (≈) assume the structure as drawn. “And” between values parts separate entries of the source, which are not always exact repeats. Equal entries are not always repeated. Where two headings read alike, the source gives them in different places.

In series [1] the test system is C. neoformans. The series can be described thus: microbe, parasite or virus in culture. Format: cell-based. To be noted: for MIC80: Cryptococcus neoformans, read-out: C. neoformans (MIC80, μM).
The subject of series [2] is E. coli. The series can be described thus: microbe, parasite or virus in culture. The series is classed as cell-based. To be noted: for MIC80: Escherichia coli, read-out: E. coli (MIC80, μM).
Series [3] in a line: in vitro. The conditions noted are these: African green monkey.
For series [4], the system named is Staphylo-coccus spp. The series can be described thus: organism not typed. The series is classed as cell-based. To be noted: for MIC80: read-out: Staphylo-coccus spp. (MIC80, μM).
The test system of series [5] is RVFV strain MP-12. Put plainly: microbe, parasite or virus in culture. The series is classed as cell-based, Rift Valley fever virus. The conditions noted are these: for EC50: read-out: RVFV (EC50, μM).
Series [6] has as its system ZIKV. The series can be described thus: microbe, parasite or virus in culture. Format: cell-based, Zika virus. To be noted: for pEC50: read-out: ZIKV EC50.
For series [7], the system named is Vero cells.
The nature of series [8]: in vitro. To be noted: human.
Series [9] has as its system RVFV strain MP-12. Put plainly: microbe, parasite or virus in culture. To be noted: Rift Valley fever virus, A549, 24 h, read-out: A549 EC50. The series is classed as cell-based, Rift Valley fever virus.
Series [10] has as its system LACV. The series can be described thus: microbe, parasite or virus in culture. The series is classed as cell-based, La Crosse virus. The conditions noted are these: for pEC50: read-out: LACV EC50.
Series [11] has as its system RVFV ZH501. The series can be described thus: microbe, parasite or virus in culture. The series is classed as cell-based, Rift Valley fever virus.
The target of series [12] is T1, Human RNase H1 (Homo sapiens, UniProt O60930).
T1 construct: made in house; host or cells: E. coli
T1 sequence (O60930 1-286): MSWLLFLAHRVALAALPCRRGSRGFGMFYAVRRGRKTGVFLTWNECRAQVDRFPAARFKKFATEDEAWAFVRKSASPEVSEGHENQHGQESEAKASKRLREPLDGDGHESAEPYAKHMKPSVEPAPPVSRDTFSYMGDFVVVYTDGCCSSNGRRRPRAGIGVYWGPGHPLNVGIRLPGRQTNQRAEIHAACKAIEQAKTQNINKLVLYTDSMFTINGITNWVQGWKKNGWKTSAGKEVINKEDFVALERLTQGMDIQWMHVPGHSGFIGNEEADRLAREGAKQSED
The series can be described thus: biochemical.

The subject of series [13] is RVFV MP-12. Put plainly: microbe, parasite or virus in culture. Format: cell-based, Rift Valley fever virus. The conditions noted are these: read-out: Estimated EC50.
Series [14] is described as follows: in vitro. The conditions noted are these: human. The source holds these as a separate data set.
Series [15] deals with HepDES19.
Setting [16] is: La Crosse virus, Vero C1008, 24 h.
The mark [17] stands for this setting: Rift Valley fever virus, Vero, 18 h.
The mark [18] stands for this setting: Rift Valley fever virus, Vero, 24 h.
The mark [19] stands for this setting: Rift Valley fever virus, Vero, read-out: Vero EC50.

For the compound `CC(C)c1ccc(O)c(=O)c(O)c1` [Compound 46, β-thujaplicinol, reference compound], the MIC80 amounted to 8 µM (≈ 1.44 µg/mL) in [1], 44 µM (≈ 7.93 µg/mL) in series [2] and 20 µM (≈ 3.6 µg/mL) in series [4]. In addition, the CC50 in [3] (CC50 Vero) was more than 120 µM. Moreover, the EC50 in [5] (Rift Valley fever virus, Vero) stood at 13.8 µM.
Consider `Cc1cc(O)c(=O)c(O)cc1C(=O)c1cccs1` [Compound 308], for which the MIC80 came to 11 µM (≈ 2.89 µg/mL) in series [1], 25 µM (≈ 6.56 µg/mL) in series [2] and 44 µM (≈ 11.5 µg/mL) in series [4]. Further, in [6], the “ZIKV EC50” value was “not the unrelated flavivirus, Zika virus”. Besides, the pEC50 in series [6] (Zika virus, Vero C1008, 48 h) is less than 3.92; in series [9] it was 5.08; in [10] (setting [16]), 4.82; in [11] (setting [17]), 4.27; in series [5] (setting [18]), 5.92; in series [5] (setting [19]) it was 5.92. In addition, the pEC50 in series [13] (Rift Valley fever virus, Vero) was 5.75. Moreover, the results for the CC50 in [7] (African green monkey), in series [3] (Vero CC50) and in [8] were 111 µM, more than 120 µM and 119 µM, respectively. Also, the “LACV EC50” value in series [10] is given as “activity against LACV”. The EC50 in series [5] (Rift Valley fever virus, Vero) turned out to be 1.16 µM. Besides, the pIC50 in series [12] was 4.34.
For the compound `Cc1cc(O)c(=O)c(O)cc1C(=O)c1ccco1` [Compound 309], the “ZIKV EC50” value in [6] is “not the unrelated flavivirus, Zika virus”. The negative-log EC50 (pEC50) in [6] (Zika virus, Vero C1008, 48 h) was less than 3.92; in series [9] it was 5.23; in series [10] (setting [16]), 4.84; in [5] (setting [18]) it was 5.80; in [5] (setting [19]), 5.80. Also, the CC50 is more than 120 µM in series [3] (CC50), more than 120 µM in series [3] (Vero CC50) and 98.1 µM in series [8]. Also, in series [10], the “LACV EC50” value is reported as “activity against LACV”.
Turning to `Cc1cc(O)c(=O)c(O)cc1C(=O)c1ccccc1O` [Compound 359], the MIC80 in series [1] worked out at 24 µM (≈ 6.53 µg/mL). Moreover, the CC50 in series [3] (CC50) is more than 120 µM; in series [14], 19.4 µM. Also, the negative logarithm of the EC50 (pEC50) was 5.29 in [5] (setting [18]) and 5.40 in [13] (Rift Valley fever virus, Vero). In series [12], this compound showed a pIC50 of 4.19.
With `Cc1cc(O)c(=O)c(O)c(O)c1C(=O)c1ccc(-c2ccccc2)cc1` [Compound 362], the MIC80 in series [1] came to 24 µM (≈ 8.36 µg/mL). Also, the CC50 was found to be 77.8 µM in [7] (African green monkey), 80 µM in series [3] (CC50) and 5.4 µM in series [14]. Also, the pEC50 in series [5] (setting [18]) was 5.60; in series [13] (Rift Valley fever virus, Vero), 5.22. The EC50 in [5] (Rift Valley fever virus, Vero) was 2.6 µM. The negative logarithm of the IC50 (pIC50) in [12] is 3.67.
On to `Cc1cc(O)c(=O)c(O)cc1C(=O)Nc1ccccc1` [Compound 389], for which the “C. neoformans (MIC80, μM)” value in series [1] is 3.5 µM. Moreover, the CC50 in series [7] is more than 120 µM; in [15] it was 26.5 µM. Further, the “E. coli (MIC80, μM)” value in series [2] turned out to be 44 µM. In series [4], the “Staphylo-coccus spp. (MIC80, μM)” value came to 44 µM. The pEC50 in [5] (read-out: RVFV (EC50)) is 5.06; in [13], 4.80. Moreover, the pIC50 in series [12] (read-out: Human RNase H1 (IC50)) is 3.51.
`O=C(Cc1ccccc1)Sc1cccccc1=O` [Compound 680]: the results for the MIC80 in series [1], in [2] and in series [4] were 0.4 µM (≈ 0.103 µg/mL), 30 µM (≈ 7.69 µg/mL) and 13 µM (≈ 3.33 µg/mL), respectively. In addition, the pEC50 is 4.71 in series [6] (Zika virus, Vero C1008, 48 h); 4.64 in series [6]; 4.94 in [9]; 4.50 in [10] (setting [16]); 5.20 in series [5] (setting [18]); 5.20 in series [5] (setting [19]). Besides, the pEC50 in [13] (Rift Valley fever virus, Vero) was 6.52. The CC50 in series [3] (CC50) was more than 120 µM; in series [3] (Estimated CC50), 0.9 µM; in [3] (Vero CC50), more than 120 µM. In addition, the pIC50 in series [12] is 3.19.
Turning to `CCCCSc1ccc(SCCCC)c(O)c(=O)c1O` [Compound 694], the MIC80 in series [1] was 2.3 µM (≈ 0.723 µg/mL); in series [4], 9 µM (≈ 2.83 µg/mL). Further, the results for the CC50 in series [7] (African green monkey), in [3] (CC50) and in series [14] were 22.1 µM, more than 120 µM and 1.8 µM, respectively. Further, the pEC50 in series [5] (setting [18]) was 5.43; in series [13] (Rift Valley fever virus, Vero), 5.25.
On to `CC(C)Sc1ccc(SC(C)C)c(O)c(=O)c1O` [Compound 696], for which the MIC80 in series [1] is 1.5 µM (≈ 0.43 µg/mL); in series [2], 20 µM (≈ 5.73 µg/mL); in [4], 13 µM (≈ 3.72 µg/mL). Further, the CC50 in series [14] is 14.1 µM. Also, the pEC50 in series [5] (setting [18]) is 5.22; in series [13] (Rift Valley fever virus, Vero), 4.92.
As for `O=c1c(O)cccc(SCc2ccccc2)c1O` [Compound 702], the results for the MIC80 in [1], in series [2] and in [4] were 0.55 µM (≈ 0.143 µg/mL), 9 µM (≈ 2.34 µg/mL) and 13 µM (≈ 3.38 µg/mL), respectively. The CC50 is more than 120 µM in series [3] (CC50) and 35.6 µM in series [3] (CC50 Vero). The pEC50 in series [5] (setting [18]) was 5.06; in series [13] (Rift Valley fever virus, Vero), 5.15. This compound also showed a negative logarithm of the IC50 (pIC50) in [12] of 4.47.
Consider `Cc1cc(O)c(=O)c(O)cc1C(=O)N1CCN(C(c2ccc(F)cc2)c2ccc(F)cc2)CC1` [Compound 1017], for which the MIC80 in series [1] was 6 µM (≈ 2.8 µg/mL). Also, the values for the CC50 in series [7] (African green monkey), in [3] (CC50) and in [14] were 54.7 µM, more than 120 µM and 3.9 µM, respectively. The pEC50 in [5] (setting [18]) was 5.10; in series [13] (Rift Valley fever virus, Vero) it was 5.46. Further, in series [12], the negative logarithm of the IC50 (pIC50) is 4.52.
Consider `O=c1nc(NO)ccn1[C@@H]1O[C@H](CO)[C@@H](O)[C@H]1O` [EIDD-1931, β-D-N4-Hydroxycytidine, reference compound], for which the negative-log EC50 (pEC50) was 5.77 and 5.76 in [6]; 5.44 in series [10]; 4.52 in series [11] (read-out: EC50); 5.29 and 5.28 in [5] (read-out: EC50); 5.30 in [13]. Moreover, the CC50 in [7] was more than 120 µM.
In turn, `NC(=O)c1ncn([C@@H]2O[C@H](CO)[C@@H](O)[C@H]2O)n1` [Ribavirin, reference compound] came in with a CC50 in [3] (CC50) of more than 120 µM. Further, the pEC50 in [11] (setting [17]) was 4.13; in [5] (setting [18]), 4.66; in series [13] (Rift Valley fever virus, Vero) it was 4.66.
